# Experimental data reported in patent US4431665A, “Acylated laidlomycin derivatives” (priority 1980, dated 1984).
# Read-outs that look alike come from different tables or passages of the source.
# Columns and labels:
# [1] = tested on: rumen contents (lactic acid accumulation); assay: Inhibition of lactic acid accumulation, second batch culture fermentation of rumen contents with glucose; format: cell-based, bovine (rumen fistulated); conditions: 6 h, 39° C.; for Lactic Acid Accumulation (μ mol/ml): Table 8, 0 μg/ml: 40.47; for activity at 1.25 µg/mL / activity at 5 µg/mL / activity at 20 µg/mL / activity at 0.31 µg/mL: Bos taurus; for activity at 0.31 µg/mL: .31 μg/ml
# Protocol: Inhibition of lactic acid accumulation is determined using a second batch culture fermentation system. Rumen contents from a rumen fistulated bovine are mixed with an equal amount of buffer which contains a 150 mM concentration of glucose. Following 6 hours of incubation at 39° C., lactic acid produced in the fermentation is analyzed by a specific enzymatic assay. The concentration of lactic acid in the fermentation broth is quantified by the increase in absorbance of light at […] when nicotinamide adenine dinucleotide is reduced by lactic acid with the aid of lactate dehydrogenase. […]
# (§1) The procedure of Example 2 was followed to compare laidlomycin (L.), sodium L. (Na L.), L.-propionate (L.C3), L. butyrate (L.C4), L. isobutyrate (L. isoC4), L. pentanoate (L.C5) and L. hexanoate (L.C6).
# (§2) The procedure of Example 2 was followed to compare the activities of L. heptanoate (L. C7), L. octanoate (L. C8), L. decanoate (L. C10) and L. dodecanoate (L. C12) in increasing propionic acid production and inhibiting lactic acid production.
# (§3) The procedure of Example 2 was followed to compare the activities of laidlomycin (L.) acetate (L. C2), L. pentanoate (L. C5), L. stearate (L. C18), L. cyclobutylcarboxylate, L. cyclopentylcarboxylate, L. cyclohexylcarboxylate and L. cyclopropylcarboxylate.
# [2] = tested on: rumen microorganisms (mixed microbial population of rumen contents); assay: Enhancement of intraruminal propionic acid production, batch culture fermentation of rumen contents; format: cell-based, bovine (rumen-fistulated); conditions: 9 h, 39° C.
# Protocol: Enhancement of intraruminal propionic acid production is determined using a batch culture fermentation system. Rumen contents from a rumen-fistulated bovine are mixed with an equal amount of buffer which contains mineral, energy and nitrogen sources required for continued growth and metabolism of the mixed microbial population. Aliquots of this inoculum then are transferred to incubation vessels containing appropriate amounts of sodium laidlomycin (Na L.) (see Example 1A), and L. butyrate (L.C4) (prepared according to the procedure of Example 1A). After 9 hours of incubation at 39° C., concentrations of individual volatile fatty acids in each incubation vessel are determined by gas-liquid chromatography. The net production of each individual volatile fatty acid (acetic [AA], propionic [PA] and butyric [BA]) is calculated as the difference between the concentration after incubation and the concentration before incubation. The molar percentage of propionic acid produced is calculated from the following equation: [formula]
# The comparative activities of sodium laidlomycin (Na L.) and the laidlomycin butyrate upon propionic acid and lactic acid production are set forth in Tables 1 and 2 where the concentration is in micrograms per ml (μg/ml).
# as §1, §2, §3
# [3] = Table 7, 1.25 μg/ml, 0 μg/ml: 36.1
# [4] = Table 7, 2.5 μg/ml, 0 μg/ml: 36.1
# [5] = Table 7, 5 μg/ml, 0 μg/ml: 36.1
# [6] = Table 7, 10 μg/ml, 0 μg/ml: 36.1
# [7] = Table 7, 20 μg/ml, 0 μg/ml: 36.1
# [8] = Table 7, .313 μg/ml, 0 μg/ml: 36.1
# [9] = Table 7, .625 μg/ml, 0 μg/ml: 36.1
# [10] = Table 3, 1.25 μg/ml, 0 μg/ml: 28.5
# [11] = Table 3, 5 μg/ml, 0 μg/ml: 28.5
# [12] = Table 3, 20 μg/ml, 0 μg/ml: 28.5
# [13] = Table 3, .31 μg/ml, 0 μg/ml: 28.5
# [14] = read-out: Accumulation of Lactic Acid - % of Control, Table 4, 1.25 μg/ml
# [15] = read-out: Accumulation of Lactic Acid - % of Control, Table 4, 5 μg/ml
# [16] = read-out: Accumulation of Lactic Acid - % of Control, Table 4, 20 μg/ml
# [17] = read-out: Accumulation of Lactic Acid - % of Control, Table 4
Structure (SMILES),Lactic Acid Accumulation (μ mol/ml) ([1]; 1.25 μg/ml),Lactic Acid Accumulation (μ mol/ml) ([1]; 2.5 μg/ml),Lactic Acid Accumulation (μ mol/ml) ([1]; 5 μg/ml),Lactic Acid Accumulation (μ mol/ml) ([1]; 10 μg/ml),Lactic Acid Accumulation (μ mol/ml) ([1]; 20 μg/ml),Lactic Acid Accumulation (μ mol/ml) ([1]; .313 μg/ml),Lactic Acid Accumulation (μ mol/ml) ([1]; .625 μg/ml),"% Propionic Acid [2, 3] [%]","% Propionic Acid [2, 4] [%]","% Propionic Acid [2, 5] [%]","% Propionic Acid [2, 6] [%]","% Propionic Acid [2, 7] [%]","% Propionic Acid [2, 8] [%]","% Propionic Acid [2, 9] [%]","% Propionic Acid [2, 10] [%]","% Propionic Acid [2, 11] [%]","% Propionic Acid [2, 12] [%]","% Propionic Acid [2, 13] [%]",further results
"CCC(=O)OC(C(C)C(=O)O)C(C)C1OC2(CCC(C)(C3CCC(C)(C4OC(C5OC(O)(COC(=O)C6CCC6)C(C)CC5C)CC4C)O3)O2)CC(O)C1C (stereo not drawn) [Cyclobutylcarboxylate, laidlomycin cyclobutylcarboxylate]",3.82,4.01,4.32,4.73,4.75,23.25,8.05,50.0,52.5,51.7,51.8,51.2,47.5,47.1,–,–,–,–,–
"CCC(=O)OC(C(C)C(=O)O)C(C)C1OC2(CCC(C)(C3CCC(C)(C4OC(C5OC(O)(COC(=O)C6CCCCC6)C(C)CC5C)CC4C)O3)O2)CC(O)C1C (stereo not drawn) [Cyclohexylcarboxylate, laidlomycin cyclohexylcarboxylate]",3.74,4.40,4.83,4.97,5.72,35.55,12.78,50.1,50.8,51.6,51.8,53.3,47.2,49.0,–,–,–,–,–
"CCC(=O)OC(C(C)C(=O)O)C(C)C1OC2(CCC(C)(C3CCC(C)(C4OC(C5OC(O)(COC(=O)C6CCCC6)C(C)CC5C)CC4C)O3)O2)CC(O)C1C (stereo not drawn) [Cyclopentylcarboxylate, laidlomycin cyclopentylcarboxylate]",3.63,3.73,4.08,4.53,9.66,24.75,6.79,51.9,50.3,51.1,51.6,50.0,47.1,47.9,–,–,–,–,–
"CCC(=O)OC(C(C)C(=O)O)C(C)C1OC2(CCC(C)(C3CCC(C)(C4OC(C5OC(O)(COC(=O)C6CC6)C(C)CC5C)CC4C)O3)O2)CC(O)C1C (stereo not drawn) [Cyclopropylcarboxylate, laidlomycin cyclopropylcarboxylate]",2.50,3.16,3.17,3.53,3.96,15.54,2.12,49.7,49.3,50.9,49.6,50.7,47.7,46.4,–,–,–,–,–
CCC(=O)OC(C(C)C(=O)O)C(C)C1OC2(CCC(C)(C3CCC(C)(C4OC(C5OC(O)(COC(C)=O)C(C)CC5C)CC4C)O3)O2)CC(O)C1C (stereo not drawn) [L. C2],6.89,4.34,4.35,4.35,5.28,41.19,22.23,50.7,50.4,52.2,51.2,53.0,42.8,47.1,–,–,–,–,–
"CCC(=O)OCC1(O)OC(C2CC(C)C(C3(C)CCC(C4(C)CCC5(CC(O)C(C)C(C(C)C(OC(=O)CC)C(C)C(=O)O)O5)O4)O3)O2)C(C)CC1C (stereo not drawn) [L. C3, laidlomycin propionate]",–,–,–,–,–,–,–,–,–,–,–,–,–,–,37.8,41.9,44.4,32.9,"activity at 1.25 µg/mL ([1]; Table 4, 1.25 μg/ml, read-out: Accumulation of Lactic Acid - % of Control): 14%; activity at 5 µg/mL ([1]; Table 4, 5 μg/ml, read-out: Accumulation of Lactic Acid - % of Control): 13%; activity at 20 µg/mL ([1]; Table 4, 20 μg/ml, read-out: Accumulation of Lactic Acid - % of Control): 14%; activity at 0.31 µg/mL ([1]; Table 4, read-out: Accumulation of Lactic Acid - % of Control): 71%"
"CCCCC(=O)OCC1(O)OC(C2CC(C)C(C3(C)CCC(C4(C)CCC5(CC(O)C(C)C(C(C)C(OC(=O)CC)C(C)C(=O)O)O5)O4)O3)O2)C(C)CC1C (stereo not drawn) [L. C5, laidlomycin pentanoate]",4.67,3.75,4.04,4.63,5.13,24.62,11.91,48.7,50.9,49.9,51.6,51.1,45.9,48.1,33.9,36.1,39.7,30.6,"activity at 1.25 µg/mL [1, 14]: 54%; activity at 5 µg/mL [1, 15]: 13%; activity at 20 µg/mL [1, 16]: 11%; activity at 0.31 µg/mL [1, 17]: 109%"
"CCCCCC(=O)OCC1(O)OC(C2CC(C)C(C3(C)CCC(C4(C)CCC5(CC(O)C(C)C(C(C)C(OC(=O)CC)C(C)C(=O)O)O5)O4)O3)O2)C(C)CC1C (stereo not drawn) [L. C6, laidlomycin hexanoate]",–,–,–,–,–,–,–,–,–,–,–,–,–,–,37.1,40.1,41.7,33.0,"activity at 1.25 µg/mL [1, 14]: 18%; activity at 5 µg/mL [1, 15]: 11%; activity at 20 µg/mL [1, 16]: 14%; activity at 0.31 µg/mL [1, 17]: 60%"
